Source: BindingDB's records for doi:10.1021/jm2007062 (Tranzyme Pharma, 2011)

Each compound was assayed against Growth hormone secretagogue receptor type 1 (Homo sapiens) (UniProt Q92847) (assay: Displacement of [125I-His9]-ghrelin from human GRLN receptor by radioligand binding assay).
Chain of Growth hormone secretagogue receptor type 1 (Homo sapiens) (Q92847 whole entry, looked up): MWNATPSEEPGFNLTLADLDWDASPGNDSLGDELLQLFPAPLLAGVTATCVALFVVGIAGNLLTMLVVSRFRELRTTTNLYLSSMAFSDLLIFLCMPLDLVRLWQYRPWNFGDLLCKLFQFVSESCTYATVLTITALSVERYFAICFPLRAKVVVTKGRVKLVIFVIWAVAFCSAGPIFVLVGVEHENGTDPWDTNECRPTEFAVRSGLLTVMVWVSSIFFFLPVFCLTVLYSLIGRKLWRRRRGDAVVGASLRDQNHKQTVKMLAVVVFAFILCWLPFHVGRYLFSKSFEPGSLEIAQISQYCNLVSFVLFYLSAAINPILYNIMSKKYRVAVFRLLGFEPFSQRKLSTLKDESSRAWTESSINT

Compound | Ki [µM]
CC[C@H](C)[C@@H]1NCCCCCCCNC(=O)[C@@H](Cc2ccccc2)NC(=O)[C@@H](C)N(C)C1=O | > 10
CN1CC(=O)N[C@H](Cc2ccccc2)C(=O)NCCCc2ccccc2OCCN[C@@H](CO)C1=O | > 10
CN1CC(=O)N[C@H](Cc2ccccc2)C(=O)NCCCc2ccccc2OCCN[C@@H](CCC(=O)O)C1=O | > 10
CCC[C@@H]1NCCOc2ccccc2CCCNC(=O)[C@@H](CO)NC(=O)CN(C)C1=O | > 10
CCC[C@@H]1NCCOc2ccccc2CCCNC(=O)[C@@H](CCC(=O)O)NC(=O)CN(C)C1=O | > 10
CCC[C@@H]1NCCOc2ccccc2CCCNC(=O)[C@@H](CCCN)NC(=O)CN(C)C1=O | > 10
